Measured values taken from patent US20230355690A1, “METHOD OF TREATMENT WITH LACTIC ACID BACTERIA” (UNIVERSITY-INDUSTRY COOPERATION GROUP OF KYUNG HEE …, priority 2017, published 2023).

Assays:
[1] = tested on: NF-κB (p-p65/p65); test: Inflammation reaction inhibiting effect on macrophage (LPS): NF-κB activation, immunoblotting; type: cell-based; details: C57BL/6J mouse peritoneal macrophage + LPS; lactic acid bacteria 1×10^4 CFU/ml
Protocol: (§1) A six-week old C57BL/6J male mouse (20-23 g) was purchased from Raonbio Co., Ltd. 2 ml of sterilized 4% thioglycolate was intraperitoneally administered into the mouse, which was then anesthetized in 96 hours later. After that, 8 ml of RPMI 1640 medium was intraperitoneally administered to the mouse. In 5 to 10 minutes later, the RPMI medium (including macrophage) was intraperitoneally extracted again from the mouse, then centrifuged on condition of 1000 rpm for 10 minutes, and then washed twice again with the RPMI 1640 medium. The macrophage was plated into a 24-well plate at 0.5×10^6 cells per well, then cultured for 24 hours, and then unattached cells were removed therefrom. The macrophage culture fluid was treated with a test material, i.e., lactic acid bacteria as well as an inflammation reaction inducer, i.e., lipopolysaccharide (LPS) for 90 minutes or 24 hours, and then supernatant and cells were obtained therefrom. At that time, a treatment concentration of lactic acid bacteria was 1×10^4 CFU/ml. Also, in order to compare the effects of lactic acid bacteria, various prebiotics were used as the test material.
An expression level of TNF-α from said obtained supernatant was measured by means of an ELISA kit. Also, the expression level of p65 (NF-κB), p-p65 (phosphor-NF-κB) and β-actin was measured from said obtained cells by means of an immunoblotting method. Particularly, 50 μg of the supernatant was taken and subjected to electrophoresis in SDS 10% (w/v) polyacrylamide gel for one and half an hour. The electrophoresed sample was transferred onto a nitrocellulose paper on condition of 100 V and 400 mA for one hour and 10 minutes. The nitrocellulose paper, onto which the sample was transferred, was subjected to blocking by means of 5% skim milk for 30 minutes, then washed with PBS-Tween three times for five minutes each, and then subjected to reaction overnight with an addition of primary antibodies (Santa Cruz Biotechnology, the U.S.) at a ratio of 1:100. After that, such paper was washed three times for ten minutes each, and subjected to reaction with the addition of secondary antibodies (Santa Cruz Biotechnology, the U.S.) at a ratio of 1:1000 for one hour and 20 minutes. Then, such paper was washed three times for 15 minutes each, then subjected to fluorescent color formation, then developed, and then the intensity of chromophore band was measured.

[2] = tested on: NF-κB (p-p65/p65); test: Inflammation reaction inhibiting effect on dendritic cells (LPS): NF-κB activation, immunoblotting; type: cell-based; details: C57BL/6 mouse bone marrow dendritic cells + LPS, 90 minutes; lactic acid bacteria 1×10^4 CFU/ml
From the text: (§2) Immune cells were isolated from the bone marrow of a C57BL/6 mouse (male, 20-23 g) by using RPMI 1640 containing 10% FBS, 1% antibiotics, 1% glutamax and 0.1% mercaptoethanol, then treated with RBC lysis buffer, and then washed. Said cells were divided into each well of a 24-well plate, then treated with GM-CSF and IL-4 at a ratio of 1:1000, and then cultured. On a 5th day of culture, the cells were replaced with a new medium, then collected on an 8th day thereof, and then used as dendritic cells. After that, the dendritic cells were plated into a 24-well plate at 0.5×10^6 cells per well, then treated with a test material, i.e., lactic acid bacteria, as well as an inflammation reaction inducer, i.e., lipopolysaccharide (LPS) for 90 minutes or 24 hours, and then supernatant and cells were obtained therefrom. At that time, a treatment concentration of lactic acid bacteria was 1×10^4 CFU/ml. Also, in order to compare the effects of lactic acid bacteria, various prebiotics were used as the test material.
(§3) An expression level of IL-10 and IL-12 was measured from said obtained supernatant by means of an ELISA kit. Also, the expression level of p65 (NF-κB), p-p65 (phosphor-NF-κB) and β-actin was measured from the cells, which have been obtained after being treated with the test material for 90 minutes, by means of the same immunoblotting method as in Example 2.(1) above. The results of testing the inflammation reaction inhibiting effect of lactic acid bacteria on dendritic cells are shown in following tables 8 to 10.

[3] = tested on: IL-12; test: Inflammation reaction inhibiting effect on dendritic cells (LPS): IL-12 expression, ELISA; type: cell-based; details: C57BL/6 mouse bone marrow dendritic cells + LPS; lactic acid bacteria 1×10^4 CFU/ml
From the text: as §2, §3

[4] = tested on: IL-10; test: Inflammation reaction inhibiting effect on dendritic cells (LPS): IL-10 expression, ELISA; type: cell-based; details: C57BL/6 mouse bone marrow dendritic cells + LPS; lactic acid bacteria 1×10^4 CFU/ml
From the text: as §2, §3

[5] = tested on: Th1 cell; test: Spleen T cell differentiation into Th1 cells, FACS; type: cell-based; details: C56BL/6J mouse spleen CD4 T cells; lactic acid bacteria 1×10^5 CFU per well, four days
Protocol: (§4) Particularly, a spleen was isolated from a C56BL/6J mouse, then crushed, then suspended in an RPMI 1640 medium containing 10% FCS, and then CD4 T cells were isolated by using a CD4 T cell isolation kit (MiltenyiBiotec, Bergisch Gladbach, Germany). The isolated CD4 T cells were divided into a 12-well plate at 5×10^5 cells per well. After that, the cells were cultured in each well with an addition of anti-CD3, anti-CD28, IL-2 and IL-12 to induce a differentiation of T cells into Th1 cells; with the addition of anti-CD3, anti-CD28, IL-2 and IL-4 to induce the differentiation of T cells into Th2 cells; with the addition of anti-CD3, anti-CD28, IL-6 and TGF-β to induce the differentiation of T cells into Th17 cells; and with the addition of anti-CD3 and anti-CD28 to induce the differentiation of T cells into Treg cells, and a test material, i.e., lactic acid bacteria were inserted thereinto at 1×10^5 CFU per well, and then cultured for four days. Also, in order to compare the effects of lactic acid bacteria, various prebiotics were used as the test material.
(§5) After that, a differentiation potency of the T cells isolated from the spleen into Th1, Th2, Th17 and Treg cells was measured. Particularly, the cells of culture fluid were stained with anti-FOXp3 or anti-IL-17A antibodies, after which a distribution of Th1, Th2, Th17 and Treg cells was analyzed by means of a FACS (fluorescence-activated cell sorting) device (C6 Flow Cytometer® System, San Jose, CA, USA), wherein results thereof are shown in following tables 11 to 13. In the tables 11 to 13 below, the lactic acid bacteria are shown without species names thereof, and are given strain names assigned by the present inventors.

[6] = tested on: Th2 cell; test: Spleen T cell differentiation into Th2 cells, FACS; type: cell-based; details: C56BL/6J mouse spleen CD4 T cells; lactic acid bacteria 1×10^5 CFU per well, four days
Protocol: as §4, §5

[7] = tested on: Th17 cell; test: Spleen T cell differentiation into Th17 cells, FACS; type: cell-based; details: C56BL/6J mouse spleen CD4 T cells; lactic acid bacteria 1×10^5 CFU per well, four days
Protocol: as §4, §5

[8] = tested on: Treg cell; test: Spleen T cell differentiation into Treg cells, FACS; type: cell-based; details: C56BL/6J mouse spleen CD4 T cells; lactic acid bacteria 1×10^5 CFU per well, four days
Protocol: as §4, §5

[9] = tested on: TNF-α; test: Inflammation reaction inhibiting effect on macrophage (LPS): TNF-α expression, ELISA; type: cell-based; details: C57BL/6J mouse peritoneal macrophage + LPS; lactic acid bacteria 1×10^4 CFU/ml
Protocol: as §1, with “At that time, a treatment concentration of lactic acid bacteria was 1×10^4 CFU/ml. Also, in order to compare the effects of lactic acid bacteria, various prebiotics were used as the test material.” left out
An expression level of TNF-α from said obtained supernatant was measured by means of an ELISA kit. Also, the expression level of p65 (NF-κB), p-p65 (phosphor-NF-κB) and β-actin was measured from said obtained cells by means of an immunoblotting method. […] Then, such paper was washed three times for 15 minutes each, then subjected to fluorescent color formation, then developed, and then the intensity of chromophore band was measured.

[10] = tested on: animal model with induced allergic rhinitis and asthma; test: Example 6: OVA-induced allergic rhinitis and asthma mice, indicators in serum and BALF (ELISA, FACS); type: in vivo, mouse; details: oral once daily for five days, Dx 1 mg/kg intraperitoneal
Protocol: Seven week-old BALB/C female mice (21-23 g) were acclimated for one week on condition of a controlled environment with humidity of 50%, temperature of 25° C., and light/dark cycle of 12:12 hours. After that, 20 μg of allergy-inducing ovalbumin (OVA) and 2 mg of aluminum hydroxide (Alum) were suspended into 0.2 ml of phosphate buffered saline (PBS: pH 7.4) and intraperitoneally injected into each of the mice on initial and 14th days of an experiment. Then, 100 μg of the OVA was dissolved in 10 μl of distilled water, and intranasally smeared onto each of the mice to induce allergic rhinitis and asthma therefrom on 26th, 27th and 28th days of the experiment. Meanwhile, a test drug, i.e., lactic acid bacteria were orally administered into each of the mice once daily for a total of five days from 26th to 30th days of the experiment. Also, dexamethasone, which was used as a positive control drug instead of lactic acid bacteria, was intraperitoneally administered at a dose of 1 mg/kg b.w. Further, in case of the mice of a normal group, allergic rhinitis and asthma were not induced therefrom, but only the phosphate buffered saline (PBS: pH 7.4) was orally administered thereinto instead of the OVA and the test drug. Furthermore, in case of the mice of a control group, allergic rhinitis and asthma were induced therefrom, and only the phosphate buffered saline (PBS: pH 7.4) was orally administered thereinto as the test drug. After an end of the experiment, the mice were anesthetized, after which blood, lung tissues and the BALF were collected therefrom. Serum was isolated from the blood collected by means of centrifugation, and used as an assay sample. Indicators related to anti-rhinitis and anti-asthma effects were analyzed from serum, the BALF and lung tissues by using various analysis methods. Each analysis method and indicators analyzed thereby are as follows. • Enzyme-linked immunosorbent assay (ELISA): IL-10, IL-5, IL-6, IL-4, IgE, etc. • FACS (fluorescence-activated cell sorting): Distribution of T cells (Th1: CD4^+/IFN-γ^+; Th2: CD4^+/IL-4^+; Treg: CD4^+/FOXp3^+; Th17: CD4^+/IL-17^+), Distribution of eosinophils (CD11b^+, Siglec-F^+)

Row | Compound | NF-κB activation inhibition rate (p-p65/p65) [1] | NF-κB activation inhibition rate (p-p65/p65) [2] | IL-12 expression inhibition rate [3] | IL-10 expression increasing rate [4] | Differentiation inhibition rate Th1 cell [5] | Differentiation inhibition rate Th2 cell [6] | Differentiation inhibition rate Th17 cell [7] | Differentiation increasing rate Treg cell [8] | TNF-α expression inhibition rate [9] | Increasing rate Treg cell ([10]; BALF, FACS) | Inhibition rate Eosinophils ([10]; BALF, FACS) | Inhibition rate Th2 cell ([10]; BALF, FACS) | Increasing rate IL-10 ([10]; BALF) | Inhibition rate IL-4 ([10]; BALF) | Inhibition rate IL-5 ([10]; BALF) | Inhibition rate IL-4 ([10]; serum) | Inhibition rate IL-5 ([10]; serum) | Inhibition rate IgE ([10]; serum)
1 | cyclodextrin | + (10-30%) | + (10-30%) | + (10-30%) | − (<10%) | ++ (30-60%) | + (10-30%) | ++ (30-60%) | + (10-50%) | – | – | – | – | – | – | – | – | – | –
2 | gelatin | + (10-30%) | + (10-30%) | + (10-30%) | + (10-50%) | + (10-30%) | ++ (30-60%) | + (10-30%) | + (10-50%) | + (10-30%) | – | – | – | – | – | – | – | – | –
3 | OC[C@H]1O[C@H](O[C@H]2O[C@H](CO)[C@@H](O)[C@H](O)[C@H]2O)[C@H](O)[C@@H](O)[C@@H]1O [Trehalose, trehalose] | + (10-30%) | + (10-30%) | + (10-30%) | + (10-50%) | + (10-30%) | + (10-30%) | + (10-30%) | + (10-50%) | – | – | – | – | – | – | – | – | – | –
4 | OC[C@H]1O[C@@H](O[C@@H]2[C@@H](CO)OC(O)(CO)[C@H]2O)[C@H](O)[C@@H](O)[C@H]1O (mixture of isomers) [Lactulose, lactulose] | + (10-30%) | + (10-30%) | + (10-30%) | − (<10%) | + (10-30%) | ++ (30-60%) | − (<10%) | ++ (50-100%) | – | – | – | – | – | – | – | – | – | –
5 | C[C@@H]1C[C@H]2[C@@H]3CCC4=CC(=O)C=C[C@]4(C)[C@@]3(F)[C@@H](O)C[C@]2(C)[C@@]1(O)C(=O)CO [Dx, dexamethasone] | – | – | – | – | – | – | – | – | – | − (<10%) | +++ (>60%) | +++ (>60%) | ++ (50-100%) | +++ (>60%) | +++ (>60%) | +++ (>60%) | ++ (30-60%) | +++ (>60%)
